System: TNF-α
Test: Inhibition of TNF-α in lipopolysaccharide (LPS) stimulated human monocytic THP-1 cells
Assay type: cell-based
Conditions: LPS (1 μg/mL) stimulated THP-1 cells, 4 hours incubation, human TNF-α by ELISA
Description: In addition, Tumor Necrosis Factor, TNF-α, inhibition can be measured by utilizing lipopolysaccharide (LPS) stimulated human monocytic cells (THP-1) as described in: • i) K. M. Mohler et al., “Protection Against a Lethal Dose of Endotoxin by an Inhibitor of Tumour Necrosis Factor Processing”, Nature, 370, pp 218-220 (1994). • ii) U.S. Pat. No. 6,297,381 B1 Cirillo et al., issued Oct. 2, 2001, incorporated by reference and reproduced herein below in relevant portion thereof.
The inhibition of cytokine production can be observed by measuring inhibition of TNF-α in lipopolysaccharide stimulated THP-1 cells. All cells and reagents are diluted in RPMI 1640 with phenol red and L-glutamine, supplemented with additional L-glutamine (total: 4 mM), penicillin and streptomycin (50 units/mL each) and fetal bovine serum (FBS 3%) (GIBCO, all conc. Final). Assay is performed under sterile conditions, only test compound preparation is non-sterile. Initial stock solutions are made in DMSO followed by dilution into RPMI 1640 2-fold higher than the desired final assay concentration. Confluent THP-1 cells ([…], final conc.; American Type Culture Company, Rockville, Md.) are added to 96 well polypropylene round bottomed culture plates (Costar 3790; sterile) containing 125 μL test compound (2-fold concentrated) or DMSO vehicle (controls, blanks). DMSO concentration should not exceed 0.2% final. Cell mixture is allowed to preincubate for 15 minutes at 37° C., 5% CO2 prior to stimulation with lipopolysaccharide (LPS, 1 μg/mL final; Sigma L-2630, from E. coli serotype 0111.B4; stored as 1 mg/mL stock in endotoxin screened diluted H2O vehicle at −80° C.). Blanks (unstimulated) receive H2O vehicle; final incubation volume is 250 μL. Incubation (4 hours) proceeds as described above. Assay is to be terminated by centrifuging plates 5 minutes at room temperature, 1600 rpm ([…]); supernatants are then transferred to clean 96 well plates and stored at −80° C. until analyzed for human TNF-α by a commercially available ELISA kit (Biosource #KHC3015, Camarillo, Calif.). The calculated IC50 value is the concentration of the test compound that caused a 50% decrease in the maximal TNF-α production.

Row | SMILES | IC50
1 | CCNC(=O)N(c1ccc(F)cc1)c1ccnc(NC(C)C)n1 [1-(4-Fluorophenyl)-1-[2-(iso-propylamino)-pyrimidin-4-yl]-3-ethyl-urea] | 28 nM
2 | CCNC(=O)N(c1ccc(F)cc1)c1ccnc(N[C@@H](C)C(C)(C)O)n1 [1-(4-Fluorophenyl)-1-{2-[(1S)-2-hydroxy-1,2-dimethyl-propylamino]-pyrimidin-4-yl}-3-ethyl-urea] | 30 nM
3 | CCNC(=O)N(c1ccc(OC)cc1)c1ccnc(N[C@@H](C)COC)n1 [1-(4-Methoxyphenyl)-1-{2-[(1S)-2-methoxy-1-methyl-ethylamino]-pyrimidin-4-yl}-3-ethyl-urea] | 666 nM
4 | CCNC(=O)N(c1ccc(SC)cc1)c1ccnc(N[C@@H](C)COC)n1 [1-(4-Methylsulfanylphenyl)-1-{2-[(1S)-2-methoxy-1-methyl-ethylamino]-pyrimidin-4-yl}-3-ethyl-urea] | 26 nM
5 | CCCCNC(=O)N(c1ccc(OC)cc1)c1ccnc(N[C@@H](C)COC)n1 [1-(4-Methoxyphenyl)-1-{2-[(1S)-2-methoxy-1-methyl-ethylamino]-pyrimidin-4-yl}-3-butyl-urea] | 324 nM
6 | CCNC(=O)N(c1ccc(OC)cc1)c1ccnc(N[C@@H](C)C(C)(C)O)n1 [1-(4-Methoxyphenyl)-1-{2-[(1S)-2-hydroxy-1,2-dimethyl-propylamino]-pyrimidin-4-yl}-3-ethyl-urea] | 16 nM
7 | CCNC(=O)N(c1ccc(OCC)cc1)c1ccnc(N[C@@H](C)COC)n1 [1-(4-Ethoxyphenyl)-1-{2-[(1S)-2-methoxy-1-methyl-ethylamino]-pyrimidin-4-yl}-3-ethyl-urea] | 276 nM
8 | CCNC(=O)N(c1ccc(F)cc1)c1ccnc(NC2CCOCC2)n1 [1-(4-Fluorophenyl)-1-[2-(tetrahydro-pyran-4-ylamino)-pyrimidin-4-yl]-3-ethyl-urea] | 86 nM

Reference: patent US7449474B2, “Tri-substituted ureas as cytokine inhibitors” (The Procter & Gamble Company, priority 2004, dated 2008)
